Measured values published in patent US20240165123A1, “USE OF A COMPOUND CONTAINING A TRICYCLIC HETEROARYL GROUP” (CSPC Zhongqi Pharmaceutical Technology (Shijiazhuang) Co., …, priority 2021, published 2024).
Where two headings read alike, the source gives them in different places.

Test system: MRL/lpr lupus erythematosus model mice
Assay type: in vivo
Design: key to Kidney IHC (IgG) pathological score, bilateral kidneys: product score; 0 negative, 1-3 low, 4-8 medium, 9-12 high
Details: prednisone 6 mg/kg QD
Experimental: • female MRL/lpr mice aged 4 weeks, number: 50; • female C57BL/6 mice aged 4 weeks, number: 10.
According to the concentration of the serum anti-ds-DNA antibody, female MRL/lpr mice were randomly divided into five groups: model group: solvent (aqueous solution containing 0.4% Tween 80 and 0.5% methylcellulose) 10 mL/kg BID, positive control group: prednisone 6 mg/kg QD, compound (I) 20, 40 and 60 mg/kg BID groups, the administration volumes respectively: 10 mL/kg. In addition, female C57BL/6 mice served as the normal control group. The animals in the Compound (I) group and the model group were administrated with the medicament or the solvent by gavage twice a day starting from the beginning of five weeks of age with an interval of 8 hours between two administrations; prednisone was administered to the animals by gavage once a day from the beginning of five weeks of age; the administration was totally performed for 17 weeks.
Two mice in the model group died at 15 and 16 weeks of administration, respectively, and 8 mice remained at the end of the test; one mouse in the compound (I) 20 mg/kg bid group died in the later period of the 16th week of administration, and 9 mice remained at the end of the test; and no death of mice occurred in other groups.
The skin destructions on the face, ears and back of mice were observed and scored once a week for 17 times totally.
Scoring system: 1) red swelling and bleeding of the skin; 2) the extent of hair loss and skin dryness; 3) edema; 4) excoriation/corrosion; 5) lichenoid sclerotic plaque and other symptoms. The score of each item was as follows: normal=0 points; slight=1 point; moderate=2 points; severe=3 points. The severity of skin destruction was determined according to the total score of each evaluated symptom. […]
The lymph nodes of MRL/lpr mice were scored once a week for a total of 17 times during the test.
According to the lymph node diameter (cm), the score values were 0-6 points: • 0 point: normal; • 1 point: small (the diameter at one location of points on both sides was less than 1 cm); • 2 points: small (the diameters at two location of points on both sides were less than 1 cm); • 3 points: small (the diameters at three location of points on both sides were less than 1 cm); • 4 points: large (the diameter at one location of points on both sides was larger than 1 cm, the diameters at the other two location of points on both sides were less than 1 cm); • 5 points: large (the diameters at two location of points on both sides were larger than 1 cm, and the diameter at the other location of points on both sides was less than 1 cm); • 6 points: large (the diameters at three location of points on both sides were greater than 1 cm). […]
Kidney HE scoring criteria: […]
During the test, the concentration of serum anti-ds-DNA antibody of mice were detected every 4 weeks for 16 weeks.
At the end of the test, the serum cytokine levels of mice were detected by ELISA. […] See Table 25 and FIG. 17 for details.

## C[C@]12C=CC(=O)C=C1CC[C@@H]1[C@@H]2C(=O)C[C@@]2(C)[C@H]1CC[C@]2(O)C(=O)CO [prednisone, reference compound]
16 weeks
  Area under the urine protein curve: 2360.38 ± 161.30 wk*mg/L
After 17 weeks of treatment
  Kidney HE pathological score of both kidneys, Activity index: 1.80 ± 0.36
  Kidney HE pathological score of both kidneys, Chronicity index: 4.90 ± 0.62
  Kidney HE pathological score of both kidneys, Tubulointerstitial lesions: 3.60 ± 0.45
  Kidney IHC (IgG) pathological score, bilateral kidneys: 7.90 ± 0.77
  Skin HE pathological score: 1.80 ± 0.36
  Total kidney weight: 0.3526 ± 0.01 g
  Total kidney weight/body weight %: 1.1050 ± 0.04%
End of the test
  IL-6 concentration in serum (ELISA): 19.91 ± 10.43 pg/mL
  Spleen weight: 0.0756 ± 0.01 g
  Spleen weight/body weight %: 0.2362 ± 0.03 %
  TNF-alpha concentration in serum (ELISA): 5.50 ± 1.13 pg/mL
  Total lymph node weight: 0.1123 ± 0.03 g
  Total lymph node weight/body weight %: 0.3445 ± 0.08 %
Week 0
  Concentration of serum anti-ds-DNA antibody: 3.26 ± 0.30 µg/mL
  Lymph node score: 0.0 ± 0.00
  Skin score (skin destruction): 0.0 ± 0.00
Week 4
  Concentration of serum anti-ds-DNA antibody: 183.55 ± 28.07 µg/mL
  Skin score (skin destruction): 0.0 ± 0.00
Week 6
  Lymph node score: 0.0 ± 0.00
Week 7
  Lymph node score: 0.2 ± 0.13
Week 8
  Concentration of serum anti-ds-DNA antibody: 363.75 ± 18.45 µg/mL
  Skin score (skin destruction): 0.3 ± 0.15
Week 9
  Lymph node score: 0.3 ± 0.15
Week 11
  Lymph node score: 0.0 ± 0.00
Week 12
  Concentration of serum anti-ds-DNA antibody: 619.78 ± 25.47 µg/mL
  Lymph node score: 0.0 ± 0.00
  Skin score (skin destruction): 0.3 ± 0.15
Week 14
  Skin score (skin destruction): 0.2 ± 0.13
Week 16
  Concentration of serum anti-ds-DNA antibody: 606.66 ± 26.65 µg/mL
  Skin score (skin destruction): 0.1 ± 0.10
Week 17
  Lymph node score: 0.0 ± 0.00
  Skin score (skin destruction): 0.1 ± 0.10
